In one series the test system is RAW 264.7 cells. In words: Cell viability (CellTiter 96 AQueous One) of LPS-challenged RAW 264.7 cells. It counts as cell-based, mouse. The arrangement: key: NS=not significant; a “+” sign=anti-inflammatory or increased cell numbers; a “−” sign=cell toxicity or pro-inflammatory. The method, boiled down: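 RAW 264.7 murine macrophages pretreated 1 h with compound or DMSO vehicle, then challenged with LPS (serotype 055:B5) at 30 or 60 ng/mL final for 24 h. After media replacement, viability measured by tetrazolium (MTS) conversion, absorbance at 490 nm, reported as O.D.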

Series [1] deals with mpo:GFP zebrafish embryos (neutrophil migration to the wound site). Description: mpo:GFP zebrafish fin-clip neutrophil migration (inflammation) assay. It counts as in vivo. The arrangement: mpo:GFP inflammation n (survived/tested): concentration or dose not given beside the values. To be noted: for minimal effective concentration: Danio rerio, Neutrophil, lowest concentration producing an effect, compounds not producing an effect shown at the highest evaluated concentration; for mpo:GFP inflammation n (survived/tested): embryos survived/tested at the concentration given. An outline of the steps: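 Tg(mpo::EGFP) larvae tail-fin clipped (dorsal third removed) at 72 hpf, then immersed in compound or vehicle. Neutrophils migrating to the wound site counted from images 24 h later; at least 50% reduction scored as anti-inflammatory. Viability and morphology also assessed.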

SMILES strings stand for the structures.

In the case of `O=C1c2ccccc2CN1C12CC3CC(CC(O)(C3)C1)C2` [Compound 86, 2,3-Dihydro-2-(tricyclo[3.3.1.1^3,7]dec-1-hydroxy-3-yl)-1H-isoindol-1-one], the Viability entry with RAW 264.7 cells (1 μM), in the series on RAW 264.7 cells (10 μM) and in the series with RAW 264.7 cells (30 μM) was “NS” throughout. The minimal effective concentration (as a rule, the smallest amount tested that counted as effective) in series [1] amounted to 100 µg/mL. The “mpo:GFP inflammation n (survived/tested)” value in series [1] is listed as 14/19.
Consider `CC(N1Cc2c(N)cccc2C1=O)C12CC3CC(CC(C3)C1)C2` (stereo not shown) [Compound 81], for which the Viability entry in the series with RAW 264.7 cells (1 μM), in the series on RAW 264.7 cells (10 μM) and in the series on RAW 264.7 cells (30 μM) was “NS” in each case. In series [1], this molecule registered a minimal effective concentration of 50 µg/mL. Also, the “mpo:GFP inflammation n (survived/tested)” value in series [1] is on record as 9/21.
On to `O=C1CCC(N2C(=O)c3cccc([N+](=O)[O-])c3C2=O)C(=O)N1` (stereo not shown) [Compound 5], for which the Viability entry in the series on RAW 264.7 cells (1 μM), in the series on RAW 264.7 cells (10 μM), in the series with RAW 264.7 cells (30 μM), in the series with RAW 264.7 cells (60 μM) and in the series on RAW 264.7 cells (100 μM) was “NS” throughout. The minimal effective concentration in series [1] was 10 µg/mL. Also, in series [1], the “mpo:GFP inflammation n (survived/tested)” value is on record as 28/28.
With `Nc1cccc2c1CN(C1CCC(=O)NC1=O)C2=S` (stereo not shown) [Compound 29], the Viability entry in the series with RAW 264.7 cells (3 μM), in the series on RAW 264.7 cells (10 μM) and in the series with RAW 264.7 cells (30 μM) was “−” in each case. Moreover, the minimal effective concentration in series [1] was 5 µg/mL. In addition, the “mpo:GFP inflammation n (survived/tested)” value in series [1] was 2/10.
Regarding `Nc1cccc2c1CN(C13CC4CC(CC(C4)C1)C3)C2=O` [Compound 77, 2,3-Dihydro-4-amino-2-(tricyclo[3.3.1.1^3,7]dec-1-yl)-1H-isoindol-1-one], the Viability result with RAW 264.7 cells (1 μM), in the series on RAW 264.7 cells (10 μM) and with RAW 264.7 cells (30 μM) was “NS” in each case. In series [1], the minimal effective concentration came to 200 µg/mL. The “mpo:GFP inflammation n (survived/tested)” value in series [1] was 5/21.
For `O=C1NC(=S)CCC1N1C(=O)c2cccc([N+](=O)[O-])c2C1=O` (stereo not shown) [Compound 7, 2-(2-Oxo-6-thioxo-3-piperidinyl)-4-nitro-1H-isoindole-1,3(2H)-dione], the Viability result is “NS” in the series on RAW 264.7 cells (1 μM); “NS” with RAW 264.7 cells (10 μM); “NS” in the series on RAW 264.7 cells (30 μM); “NS” in the series with RAW 264.7 cells (60 μM); “+” in the series with RAW 264.7 cells (100 μM). The minimal effective concentration in series [1] was 10 µg/mL. For the same molecule, the “mpo:GFP inflammation n (survived/tested)” value in series [1] is given as 29/29.
